According to patent US5563176A (priority 1994, dated 1996):
Where “and” joins values, the source holds several entries; their conditions need not be identical. Equal values may be shown once. Read-outs that look alike come from different tables or passages of the source.

Tests used:
[1] = system: HL60 cells (myeloid); assay: cells; type: cell-based, human; conditions: for IC50: Homo sapiens, HL-60, 2 h, read-out: Two hour IC50
[2] = system: 8392 cells (B-cell); assay: cells; type: cell-based; conditions: 2 h, read-out: Two hour IC50
[3] = system: MV522 cells; assay: cells; type: cell-based, human; conditions: for IC50: Homo sapiens, MV522, 2 h, read-out: Two hour IC50
[4] = system: HL-60 cells; assay: cells; type: cell-based, human
[5] = system: HL60 cells; assay: cells; type: cell-based; conditions: Homo sapiens, HL-60, 48 h, read-out: 48 hour IC50
[6] = system: 8392 cells; assay: cells; type: cell-based; conditions: 48 h, read-out: 48 hour IC50
[7] = system: MV522; assay: cells; type: cell-based; conditions: Homo sapiens, MV522, 48 h, read-out: 48 hour IC50
[8] = system: HL60/MRI cells (human myeloid leukemia tumor cells); conditions: in vivo, iv
[9] = system: human lung adenocarcinoma MV522; conditions: in vivo
[10] = system: human lung adenocarcinoma MV522; assay: animal or person; conditions: MV522, ip, read-out: life span

| Structure (SMILES) | IC50 [1] [µM] | IC50 [2] [µM] | IC50 [3] [µM] | IC50 [5] [µM] | IC50 [6] [µM] | IC50 [7] [µM] | other results |
| --- | --- | --- | --- | --- | --- | --- | --- |
| CC1=CC2=C(C)C3(CC3)[C@@](C)(O)C(=O)C2=C1 [Illudofulvene] | 0.998 ± 0.244 | 0.0664 | 0.727 ± 0.18 | 0.364 ± 0.074 | 0.833 ± 0.152 | 0.349 ± 0.023 | IC50 ([4]; Homo sapiens, HL-60): 0.5 µM; adverse effects (food or water intake, body weight) [8]: did not display any evidence of adverse effect; inhibition of tumor growth [8]: effective at inhibiting tumor growth |
| CC1=C(Cc2ccc(O)cc2)C2=C(C)C3(CC3)[C@@](C)(O)C(=O)C2=C1 [6-(p-hydroxybenzyl)acylfulvene, 6-(p-Hydroxybenzyl)acylfulvene] | 0.264 ± 0.038 | 95.2 | 1.18 | 0.382 ± 0.039 | 11.1 | 0.615 ± 0.056 | efficacy in this model [9]: effective in this model; response vs control in vivo at 15 mg/kg [10]: 125 ± 16%; response vs control in vivo at 20 mg/kg [10]: 126 ± 22% |
| CC(=O)O[C@H]1C(=O)[C@@]2(C)[C@H]([C@H](OC(=O)c3ccccc3)[C@]3(O)C[C@H](OC(=O)[C@H](O)[C@@H](NC(=O)c4ccccc4)c4ccccc4)C(C)=C1C3(C)C)[C@]1(OC(C)=O)CO[C@@H]1C[C@@H]2O [taxol] |  |  |  |  |  |  | life span versus control [9]: no significant increase in the life span; tumor growth response [9]: failed to inhibit tumor growth; life span ([9]; ip, 4 mg/kg): 120 ± 10%; drug toxicity ([9]; ip, 6 mg/kg): drug toxicity was now killing the animals; response vs control in vivo at 4 mg/kg [10]: 100 ± 10%; response vs control in vivo at 6 mg/kg [10]: 93 ± 22%; response vs control in vivo at 20 mg/kg [10]: 113 ± 22% |
| CC1=C(I)C2=C(C)C3(CC3)[C@@](C)(O)C(=O)C2=C1 [6-iodoacylfulvene, 6-Iodoacylfulvene] | 2.6 | 10.3 | 0.956 ± 0.152 | 0.29 ± 0.012 | 1.7 | 0.556 ± 0.047 | toxicity to target tumor cells [1]: markedly toxic; toxicity to target tumor cells [3]: markedly toxic; response vs control in vivo at 20 mg/kg [10]: 120 ± 34% |
| CO[C@@]12[C@H](COC(N)=O)C3=C(C(=O)C(C)=C(N)C3=O)N1C[C@@H]1N[C@@H]12 [mitomycin C] |  |  |  |  |  |  | life span versus control [9]: no significant increase in the life span; life span ([9]; ip, 2.4 mg/kg): 111 ± 2% and 149 ± 12% |
| Cc1cc2c(c(C)c1CCO)C(=O)[C@@H](C)[C@@H]2O [Pterosin C] |  |  |  |  |  |  | IC50 ([4]; read-out: IC50): 12.5 µM |
| COc1cccc2c1C(=O)c1c(O)c3c(c(O)c1C2=O)C[C@@](O)(C(=O)CO)C[C@@H]3O[C@H]1C[C@H](N)[C@H](O)[C@H](C)O1 [Adriamycin] |  |  |  |  |  |  | life span versus control [9]: no significant increase in the life span; life span ([9]; ip, 2.6 mg/kg): 98 ± 12% and 150 ± 25% |
| COc1ccc(CC2=C(C)C=C3C(=O)[C@](C)(O)C4(CC4)C(C)=C32)cc1 [6-(p-methoxybenzyl)acylfulvene] | 1.96 | 35.7 | 2.04 | 1.05 | 7.14 | 1.55 |  |
| CC(=O)OCC1=C(C)C=C2C(=O)[C@](C)(O)C3(CC3)C(C)=C21 [6-acetoxymethylacylfulvene] | 3.33 | 47.5 | 1.07 | 0.806 ± 0.03 | 4.43 | 0.486 ± 0.042 |  |
| C[C@@]1(CO)[C@H](O)CC[C@@]2(C)[C@H]1CC[C@H]1C[C@@H]3C[C@@]12CC[C@]3(O)CO [Aphidocolin] |  |  |  |  |  |  | IC50 ([4]; read-out: IC50): 2.1 µM |
| O=NN(CCCl)C(=O)NCCCl [BCNU] |  |  |  |  |  |  | IC50 ([4]; Homo sapiens, HL-60): 23.3 µM |
| CC1=C(Br)C2=C(C)C3(CC3)[C@@](C)(O)C(=O)C2=C1 [6-bromoacylfulvene, 6-Bromoacylfulvene] | 0.803 ± 0.088 |  | 4.18 | 0.412 ± 0.021 | 1.19 | 0.356 ± 0.061 | toxicity to target tumor cells [1]: markedly toxic; toxicity to target tumor cells [3]: markedly toxic; efficacy in this model [9]: effective in this model |
| CC1=Cc2cc(C)c(C)c(C)c2C1=O [2,5,6,7-tetramethyl-1-indenone, 2,5,6,7-Tetramethyl-1-Indenone] |  |  |  |  |  |  | IC50 ([4]; Homo sapiens, HL-60): 0.475 µM |
